Measured values published in ChEMBL document CHEMBL1201862, “PubChem BioAssay data set” (2004).
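Grown in 96-well plates, cells were treated for 48 hours with each compound at five concentrations. Insufficient inhibition: endpoint recorded as highest concentration tested. GI50 = concentration required for 50% inhibition of growth.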 Calls of active or inactive are those of the source. Cut-off read from the data, not from the text of the source: active = GI50 up to about 1.1 µM and inactive = higher.

How the values were obtained:
Assay in all cases: NCI-60 cell line screen, 48 h
IGROV-1 = test system: IGROV-1
EKVX = test system: EKVX
SN12C = test system: SN12C
DMS-114 = test system: DMS-114
NCI-H226 = test system: NCI-H226
XF498 = test system: XF498
KM12 = test system: KM12
MOLT-4 = test system: MOLT-4
SK-MEL-28 = test system: SK-MEL-28
CAKI-1 = test system: CAKI-1
OVCAR-8 = test system: OVCAR-8
HL-60 = test system: HL-60
HT-29 = test system: HT-29
M19-MEL = test system: M19-MEL
CCRF-CEM = test system: CCRF-CEM
SF-295 = test system: SF-295
RXF 393 = test system: RXF 393
SNB-19 = test system: SNB-19
KM-20L2 = test system: KM-20L2
RPMI-8226 = test system: RPMI-8226
U-251 = test system: U-251
NCI-H460 = test system: NCI-H460
SK-MEL-5 = test system: SK-MEL-5
OVCAR-4 = test system: OVCAR-4
HOP-92 = test system: HOP-92
Malme-3M = test system: Malme-3M
NCI/ADR-RES = test system: NCI/ADR-RES
HOP-62 = test system: HOP-62
OVCAR-5 = test system: OVCAR-5
SF-268 = test system: SF-268
MCF7 = test system: MCF7
HCT-15 = test system: HCT-15
HCC 2998 = test system: HCC 2998
DMS-273 = test system: DMS-273
NCI-H23 = test system: NCI-H23
SK-OV-3 = test system: SK-OV-3
NCI-H522 = test system: NCI-H522
HCT-116 = test system: HCT-116
SW-620 = test system: SW-620
LOX IMVI = test system: LOX IMVI
UACC-257 = test system: UACC-257
SK-MEL-2 = test system: SK-MEL-2
SNB-78 = test system: SNB-78
SF-539 = test system: SF-539
A549 = test system: A549
OVCAR-3 = test system: OVCAR-3
DLD-1 = test system: DLD-1
A498 = test system: A498
UO-31 = test system: UO-31
SNB-75 = test system: SNB-75
UACC-62 = test system: UACC-62
COLO 205 = test system: COLO 205
K562 = test system: K562

Which results are given for `COc1cc(CCCOC2OC(COC3OCC(O)C(O)C3O)C(O)C(O)C2O)cc2cc(-c3ccc4c(c3)OCO4)oc12` (stereo not drawn)?
GI50 (IGROV-1): > 175 µM (inactive); GI50 (EKVX): > 175 µM (inactive); GI50 (SN12C): 81.3 µM (inactive); GI50 (DMS-114): > 175 µM (inactive); GI50 (NCI-H226): > 175 µM (inactive); GI50 (XF498): > 175 µM (inactive); GI50 (KM12): > 175 µM (inactive); GI50 (MOLT-4): > 175 µM (inactive); GI50 (SK-MEL-28): > 175 µM (inactive); GI50 (CAKI-1): > 175 µM (inactive); GI50 (OVCAR-8): 94.6 µM (inactive); GI50 (HL-60): > 175 µM (inactive); GI50 (HT-29): > 175 µM (inactive); GI50 (M19-MEL): > 175 µM (inactive); GI50 (CCRF-CEM): > 69.7 µM (inactive); GI50 (SF-295): > 175 µM (inactive); GI50 (RXF 393): > 94 µM (inactive); GI50 (SNB-19): > 175 µM (inactive); GI50 (KM-20L2): > 175 µM (inactive); GI50 (RPMI-8226): > 175 µM (inactive); GI50 (U-251): > 175 µM (inactive); GI50 (NCI-H460): > 175 µM (inactive); GI50 (SK-MEL-5): > 175 µM (inactive); GI50 (OVCAR-4): > 175 µM (inactive); GI50 (HOP-92): > 175 µM (inactive); GI50 (Malme-3M): > 175 µM (inactive); GI50 (NCI/ADR-RES): > 175 µM (inactive); GI50 (HOP-62): > 175 µM (inactive); GI50 (OVCAR-5): > 175 µM (inactive); GI50 (SF-268): > 175 µM (inactive); GI50 (MCF7): > 175 µM (inactive); GI50 (HCT-15): > 175 µM; GI50 (HCC 2998): > 98.4 µM (inactive); GI50 (DMS-273): > 175 µM (inactive); GI50 (NCI-H23): > 175 µM (inactive); GI50 (SK-OV-3): > 175 µM (inactive); GI50 (NCI-H522): > 175 µM (inactive); GI50 (HCT-116): > 175 µM (inactive); GI50 (SW-620): > 175 µM (inactive); GI50 (LOX IMVI): > 175 µM (inactive); GI50 (UACC-257): > 175 µM (inactive); GI50 (SK-MEL-2): > 175 µM (inactive); GI50 (SNB-78): > 175 µM (inactive); GI50 (SF-539): > 175 µM (inactive); GI50 (A549): > 175 µM (inactive); GI50 (OVCAR-3): > 175 µM (inactive); GI50 (DLD-1): > 175 µM (inactive); GI50 (A498): > 27.7 µM (inactive); GI50 (UO-31): > 175 µM (inactive); GI50 (SNB-75): > 175 µM (inactive); GI50 (UACC-62): > 175 µM (inactive); GI50 (COLO 205): > 175 µM (inactive); GI50 (K562): > 175 µM (inactive)
